From PubChem BioAssay AID256 (DTP/NCI, 2004)
Values joined by “and” are separate entries in the source; they are usually repeats but may differ in a detail not shown here. Identical values can stand only once. Inconclusive results and toxic doses are left out. Rule for the calls: active = survival T/C of 150% or more; inactive = T/C below 125% in these data.

Tested on: CD2F1 mice, L1210 leukemia ip, survival T/C
Experiment: NCI In Vivo Anticancer Drug Screen. Data for tumor model L1210 Leukemia (intraperitoneal) in CD2F1 (CDF1) mice
Settings: higher = longer survival
Outline: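 Implant tumor; dose compound or vehicle; measure endpoint in both groups; report treated divided by control.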

[1] = endpoint: mean survival time, dose: 50.0 mg/kg/injection, schedule: Q01DX009 (ip), vehicle: saline
[2] = endpoint: mean survival time, dose: 100.0 mg/kg/injection, schedule: Q01DX009 (ip), vehicle: saline
[3] = endpoint: mean survival time, dose: 100.0 mg/kg/injection, schedule: Q04DX003 (ip), vehicle: saline with Tween-80
[4] = endpoint: mean survival time, dose: 200.0 mg/kg/injection, schedule: Q04DX003 (ip), vehicle: saline with Tween-80
[5] = endpoint: mean survival time, dose: 400.0 mg/kg/injection, schedule: Q04DX003 (ip), vehicle: saline with Tween-80
[6] = endpoint: mean survival time, dose: 12.5 mg/kg/injection, schedule: Q01DX009 (ip), vehicle: saline with Tween-80
[7] = endpoint: mean survival time, dose: 25.0 mg/kg/injection, schedule: Q01DX009 (ip), vehicle: saline with Tween-80
[8] = endpoint: mean survival time, dose: 50.0 mg/kg/injection, schedule: Q01DX009 (ip), vehicle: saline with Tween-80
[9] = endpoint: mean survival time, dose: 100.0 mg/kg/injection, schedule: Q01DX009 (ip), vehicle: saline with Tween-80
[10] = endpoint: mean survival time, dose: 100.0 mg/kg/injection, schedule: Q01DX001 (ip), vehicle: saline
[11] = endpoint: mean survival time, dose: 200.0 mg/kg/injection, schedule: Q01DX001 (ip), vehicle: saline
[12] = endpoint: mean survival time, dose: 400.0 mg/kg/injection, schedule: Q01DX001 (ip), vehicle: saline
[13] = endpoint: mean survival time, dose: 200.0 mg/kg/injection, schedule: Q01DX009 (ip), vehicle: saline with Tween-80
[14] = endpoint: mean survival time, dose: 400.0 mg/kg/injection, schedule: Q01DX009 (ip), vehicle: saline with Tween-80
[15] = endpoint: mean survival time, dose: 25.0 mg/kg/injection, schedule: Q04DX003 (ip), vehicle: saline with Tween-80
[16] = endpoint: mean survival time, dose: 50.0 mg/kg/injection, schedule: Q04DX003 (ip), vehicle: saline with Tween-80

Measured: T/C

C=C(Br)CNC(=O)CCCl
inactive: endpoint: mean survival time, dose: 1.56 mg/kg/injection, schedule: Q01DX009 (ip), vehicle: other 102 % of control | endpoint: mean survival time, dose: 3.13 mg/kg/injection, schedule: Q01DX009 (ip), vehicle: other 103 % of control | endpoint: mean survival time, dose: 6.25 mg/kg/injection, schedule: Q01DX009 (ip), vehicle: other 100 % of control | endpoint: mean survival time, dose: 6.25 mg/kg/injection, schedule: Q04DX003 (ip), vehicle: other 103 % of control | endpoint: mean survival time, dose: 12.5 mg/kg/injection, schedule: Q04DX003 (ip), vehicle: other 100 % of control | endpoint: mean survival time, dose: 25.0 mg/kg/injection, schedule: Q04DX003 (ip), vehicle: other 105 % of control

CCOC(=O)C(C(=O)OCC)C(C[N+](=O)[O-])c1ccccc1 (centres undefined)
inactive: [1] 92 % of control | [2] 116 % of control | endpoint: mean survival time, dose: 200.0 mg/kg/injection, schedule: Q01DX009 (ip), vehicle: saline 96 % of control

O=C(O)CC(NCc1ccccc1)C(=O)O (centres undefined)
inactive: [3] 103 % of control | [4] 100 % of control | [5] 97 % of control

CCC(C)CC(N)O (centres undefined)
inactive: endpoint: mean survival time, dose: 75.0 mg/kg/injection, schedule: Q01DX001 (ip), vehicle: saline 103 % of control | endpoint: mean survival time, dose: 150.0 mg/kg/injection, schedule: Q01DX001 (ip), vehicle: saline 97 % of control

Cc1ccc(Cl)c2ccccc12
inactive: [6] 97 % of control | [7] 100 % of control | [8] 97 % of control | [9] 94 % of control

O=CC(O)C(O)C(O)CO (centres undefined)
inactive: [10] 96 % of control | [11] 93 % of control | [12] 98 % of control

COC(=O)c1cc(I)ccc1O
inactive: [9] 107 % of control | [3] 103 % of control | [13] 109 % of control | [4] 100 % of control | [14] 103 % of control | [5] 100 % of control

[Cl][Pt][Cl].[NH-]NC(=O)c1ccncc1
inactive: endpoint: mean survival time, dose: 12.5 mg/kg/injection, schedule: Q04DX003 (ip), vehicle: saline with Tween-80 95 % of control | [15] 94 % of control | [16] 91 % of control | [3] 94 % of control | [4] 88 % of control

Cc1cc(=O)[nH]c2[nH]c(=O)ccc12
inactive: [10] 100 % of control | [11] 96 % of control | [12] 96 % of control

O=c1c2cc([N+](=O)[O-])cc3c2-c2c4c(cc([N+](=O)[O-])cc14)c(O)c1cc([N+](=O)[O-])cc(c3=O)c21
inactive: [9] 103 % of control | [13] 117 % of control | [14] 113 % of control

COC1OC2COc3ccccc3OC2C(N)C1Nc1ccccc1 (centres undefined)
inactive: endpoint: mean survival time, dose: 75.0 mg/kg/injection, schedule: Q01DX001 (ip), vehicle: saline with Tween-80 101 % of control | endpoint: mean survival time, dose: 150.0 mg/kg/injection, schedule: Q01DX001 (ip), vehicle: saline with Tween-80 101 % of control | endpoint: mean survival time, dose: 300.0 mg/kg/injection, schedule: Q01DX001 (ip), vehicle: saline with Tween-80 100 % of control

N#CC(/C=C/c1ccccc1)Nc1ccccc1CO (centres undefined)
inactive: [3] 97 % of control | [4] 105 % of control | [5] 117 % of control

Clc1ccc(C(c2ccccc2Cl)C(Cl)Cl)cc1 (centres undefined)
inactive: endpoint: mean survival time, dose: 62.5 mg/kg/injection, schedule: Q01DX009 (sc), vehicle: steriod suspending solution 95 % of control and 106 % of control | endpoint: mean survival time, dose: 125.0 mg/kg/injection, schedule: Q01DX009 (sc), vehicle: steriod suspending solution 98 % of control and 102 % of control | endpoint: mean survival time, dose: 250.0 mg/kg/injection, schedule: Q01DX009 (sc), vehicle: steriod suspending solution 95 % of control and 105 % of control | endpoint: mean survival time, dose: 500.0 mg/kg/injection, schedule: Q01DX009 (sc), vehicle: steriod suspending solution 101 % of control and 106 % of control

COc1cccc(CN2CCNCC2)c1
inactive: endpoint: mean survival time, dose: 25.0 mg/kg/injection, schedule: Q01DX005 (ip), vehicle: water 102 % of control | endpoint: mean survival time, dose: 50.0 mg/kg/injection, schedule: Q01DX005 (ip), vehicle: water 102 % of control | endpoint: mean survival time, dose: 100.0 mg/kg/injection, schedule: Q01DX005 (ip), vehicle: water 102 % of control

CCCCC(CC)C(=O)[O][Pb]([CH3])([CH3])[CH3] (centres undefined)
inactive: endpoint: mean survival time, dose: 5.0 mg/kg/injection, schedule: Q04DX003 (ip), vehicle: saline with Tween-80 97 % of control | endpoint: mean survival time, dose: 10.0 mg/kg/injection, schedule: Q04DX003 (ip), vehicle: saline with Tween-80 98 % of control

NP(=O)(OCCCCOCc1ccccc1)N(CCCl)CCCl (centres undefined)
inactive: endpoint: mean survival time, dose: 25.0 mg/kg/injection, schedule: Q01DX001 (ip), vehicle: other 98 % of control | endpoint: mean survival time, dose: 50.0 mg/kg/injection, schedule: Q01DX001 (ip), vehicle: other 101 % of control | endpoint: mean survival time, dose: 100.0 mg/kg/injection, schedule: Q01DX001 (ip), vehicle: other 101 % of control | endpoint: mean survival time, dose: 200.0 mg/kg/injection, schedule: Q01DX001 (ip), vehicle: other 90 % of control | endpoint: mean survival time, dose: 400.0 mg/kg/injection, schedule: Q01DX001 (ip), vehicle: other 95 % of control

C=CCOCC(O)CNCCCC (centres undefined)
inactive: endpoint: mean survival time, dose: 12.5 mg/kg/injection, schedule: Q01DX009 (ip), vehicle: saline 96 % of control | endpoint: mean survival time, dose: 25.0 mg/kg/injection, schedule: Q01DX009 (ip), vehicle: saline 107 % of control | [1] 96 % of control and 111 % of control

O=c1[nH]c(=O)c2ccccc2o1
inactive: [6] 101 % of control | [7] 101 % of control | [8] 98 % of control

CCCCCc1cc(/C=C2/N=C(c3ccc[nH]3)C=C2OC)[nH]c1C
inactive: endpoint: mean survival time, dose: 0.25 mg/kg/injection, schedule: Q01DX009 (ip), vehicle: saline with Tween-80 92 % of control | endpoint: mean survival time, dose: 0.5 mg/kg/injection, schedule: Q01DX009 (ip), vehicle: saline with Tween-80 97 % of control | endpoint: mean survival time, dose: 1.0 mg/kg/injection, schedule: Q01DX009 (ip), vehicle: saline with Tween-80 101 % of control | endpoint: mean survival time, dose: 2.0 mg/kg/injection, schedule: Q01DX009 (ip), vehicle: saline with Tween-80 103 % of control | endpoint: mean survival time, dose: 4.0 mg/kg/injection, schedule: Q01DX009 (ip), vehicle: saline with Tween-80 92 % of control

CCNC(=S)Nc1ccc(Cl)cc1
inactive: [15] 104 % of control | [16] 101 % of control | [3] 91 % of control

CC1CC2CC(=O)CCC2(C)C2CCC3(C)C(O)CCC3C12 (centres undefined)
inactive: endpoint: mean survival time, dose: 18.75 mg/kg/injection, schedule: Q01DX009 (ip), vehicle: Klucel (hydroxypropylcellulose) (HPC) 100 % of control | endpoint: mean survival time, dose: 37.5 mg/kg/injection, schedule: Q01DX009 (ip), vehicle: Klucel (hydroxypropylcellulose) (HPC) 100 % of control | endpoint: mean survival time, dose: 75.0 mg/kg/injection, schedule: Q01DX009 (ip), vehicle: Klucel (hydroxypropylcellulose) (HPC) 100 % of control | endpoint: mean survival time, dose: 150.0 mg/kg/injection, schedule: Q01DX009 (ip), vehicle: Klucel (hydroxypropylcellulose) (HPC) 95 % of control | endpoint: mean survival time, dose: 300.0 mg/kg/injection, schedule: Q01DX009 (ip), vehicle: Klucel (hydroxypropylcellulose) (HPC) 95 % of control

CCN(CC)CCSC(=O)c1ccccc1
inactive: [1] 103 % of control | [2] 103 % of control

O=C1/C(=C/c2ccccc2[N+](=O)[O-])Cc2ccccc21
inactive: endpoint: mean survival time, dose: 100.0 mg/kg/injection, schedule: Q04DX003 (ip), vehicle: Klucel (hydroxypropylcellulose) (HPC) 100 % of control | endpoint: mean survival time, dose: 200.0 mg/kg/injection, schedule: Q04DX003 (ip), vehicle: Klucel (hydroxypropylcellulose) (HPC) 100 % of control | endpoint: mean survival time, dose: 400.0 mg/kg/injection, schedule: Q04DX003 (ip), vehicle: Klucel (hydroxypropylcellulose) (HPC) 103 % of control

[Ni+2].[S-]Cc1ccccc1.[S-]Cc1ccccc1
inactive: [10] 100 % of control | [11] 96 % of control

O=C1c2ccccc2C(=O)n2nc3ccccc3c21
inactive: endpoint: median survival time, dose: 50.0 mg/kg/injection, schedule: Q04DX002 (ip), vehicle: saline with Tween-80 100 % of control | endpoint: median survival time, dose: 100.0 mg/kg/injection, schedule: Q04DX002 (ip), vehicle: saline with Tween-80 100 % of control | endpoint: median survival time, dose: 200.0 mg/kg/injection, schedule: Q04DX002 (ip), vehicle: saline with Tween-80 90 % of control | endpoint: median survival time, dose: 400.0 mg/kg/injection, schedule: Q04DX002 (ip), vehicle: saline with Tween-80 100 % of control

c1ccc(CCNCc2ccccc2)cc1
inactive: [7] 94 % of control | [8] 98 % of control | [16] 104 % of control | [9] 88 % of control | [3] 97 % of control

Cc1cc(C)c(NC(=O)/C=C/c2ccccc2)c(C)c1
inactive: endpoint: mean survival time, dose: 100.0 mg/kg/injection, schedule: Q04DX002 (ip), vehicle: saline with Tween-80 96 % of control | endpoint: mean survival time, dose: 200.0 mg/kg/injection, schedule: Q04DX002 (ip), vehicle: saline with Tween-80 89 % of control | endpoint: mean survival time, dose: 400.0 mg/kg/injection, schedule: Q04DX002 (ip), vehicle: saline with Tween-80 96 % of control

O=C(CCc1ccc(O)cc1)N/N=C/c1ccc2c(c1)OCO2
inactive: [3] 90 % of control | [4] 90 % of control | [5] 88 % of control
